For data set [1], the system named is CaMKII. Particulars: cited from earlier work.
Data set [2] concerns the target T1, CaMKII (Rattus norvegicus, UniProt P15791).
T1 construct: endogenous in cells; host or cells: neonatal rat ventricular myocytes (Sprague-Dawley)
Nature of the data set: Pacing-induced CaMKII activity in CaMKAR-expressing neonatal rat ventricular myocytes (NRVMs). It counts as cell-based.

For data set [3] the following is noted: in vivo; cited from earlier work.
The conditions of data set [4]: in vivo; cited from earlier work. The source holds these as a separate data set.
For data set [5] the following is noted: cited from earlier work.
The next data set relates to 293T cells. Description: Cell viability in 293T cells (CellTiter-Glo 2.0). Particulars: 12-hour exposure. For orientation: Cellular ATP, detected with luciferase, serves as a proxy for viable cell number.
Data set [6] relates to CaMKII. The conditions noted are these: HEK293T cells and in vitro by independent commercial laboratory.
Another data set deals with T2, CaMKII^T287D (Homo sapiens, UniProt Q13557, T287D).
T2 construct: expressed in transfected cells; host or cells: HEK293T
Nature of the data set: CaMKII inhibition in 293T cells expressing CaMKAR and CaMKII^T287D (high content imaging). In kind it is cell-based. Particulars: HEK293T cells, IC50 curves.

Data set [7] addresses CaMKII (Homo sapiens, UniProt Q13557). It counts as biochemical. Particulars: 5 μM drug, 100 μM ATP.
Data set [8] addresses T3, constitutively active CaMKIIδT287D (Homo sapiens, UniProt Q13557, T287D).
T3 construct: P2A-mCherry (C); expressed in transfected cells; host or cells: K562 (lentiviral, doxycycline-induced)
Nature of the data set: CaMKAR-based high throughput primary screen in K562^CaMKII-CaMKAR cells. In kind it is cell-based. The conditions noted are these: 5 μM per compound, 12 hours.

Data set [9] deals with CaMKAR (CaMKII Activity Reporter) (human). Description: cell-based or functional assay.
In data set [10] the test system is Purified recombinant CaMKAR.

Where two headings read alike, the source gives them in different places.

This is an account of results in patent publication US20250228857A1, “BIOSENSOR AND USES THEREOF” (The Johns Hopkins University, priority 2022, published 2025).

Consider `O=c1c(O)c(-c2ccc(O)c(O)c2)oc2ccccc12` [DiOHF, 3′,4′-dihydroxyflavonol], for which the IC50 in the data set with CaMKII [1] (read-out: published IC50) was 250 nM.

In the case of `O=C(Nc1nc2cccc(-c3ccc(CN4CCS(=O)(=O)CC4)cc3)n2n1)C1CC1` [Filgotinib, filgotinib], the “inhibition of pacing-induced CaMKII activity” value at CaMKII [2] (0.5 μM and 2 μM pre-treatment) was “failed to inhibit”.

For the compound `CN([C@@H](Cc1ccc(OS(=O)(=O)c2cccc3cnccc23)cc1)C(=O)N1CCN(c2ccccc2)CC1)S(=O)(=O)c1cccc2cnccc12` [KN-62, 1-[N,O-bis(5-isoquinolinesulfonyl)-N-methyl-L-tyrosyl]-4-phenylpiperazine], the “inhibition of autonomously hyperactive CaMKII” value in the data set with CaMKII [1] is recorded as “fail to inhibit”.

For the compound `COc1ccc(S(=O)(=O)N(CCO)c2ccccc2CN(C)CC=Cc2ccc(Cl)cc2)cc1` [KN-93], the “inhibition of autonomously hyperactive CaMKII” value with CaMKII [1] is listed as “fail to inhibit”.

`CCN1CCN(Cc2ccc(Nc3ncc(F)c(-c4cc(F)c5nc(C)n(C(C)C)c5c4)n3)nc2)CC1` [abemaciclib]: in data set [3], the “maximum human plasma concentration” value is on record as 243 nM. In addition, the CNS penetrance in [4] is 11-16.6%. Besides, the “Maximum dose used in humans” value in data set [5] (human, in vivo) is 200 mg BID.

On to `CCS(=O)(=O)N1CC(CC#N)(n2cc(-c3ncnc4[nH]ccc34)cn2)C1` [baricitinib], for which the “maximum human plasma concentration” value in data set [3] is on record as 58 nM. In addition, the CNS penetrance in data set [4] is reported as 20% (103). In the data set on 293T cells, the “toxicity compared with AS100397” value is given as “less toxic”. For the same compound, the “Maximum dose used in humans” value is recorded as 4 mg QD (97) in data set [5] (FDA-approved) and 40 mg (98) in data set [5] (Healthy volunteers).

Turning to `CC1(COc2ccc3c(c2)ncn3-c2ccc3cccc(N4CCC(N)CC4)c3n2)COC1` [crenolanib], the “maximum human plasma concentration” value in data set [3] is given as 478 nM. In addition, the “toxicity compared with AS100397” value with 293T cells is given as “all drugs except crenolanib were less toxic”. In addition, the “inhibition of pacing-induced CaMKII activity at maximal human plasma concentration” value on CaMKII [2] (3 Hz pacing, ruxolitinib 1.51 μM, crenolanib 478 nM, abemaciclib 243 nM, baricitinib 58 nM, silmitasertib 3.42 μM) is listed as “sustained inhibition”. Further, the “confirmed CaMKII inhibitor after re-test” value with CaMKII [6] is on record as “potent CaMKII inhibitors”. Further, in data set [5] (human, in vivo), the “Maximum dose used in humans” value is reported as 100 mg TID. Besides, at CaMKII^T287D, the “potency compared with AS100397” value was “more potent than AS100397”.

On to `O=C(O)c1ccc2c(c1)nc(Nc1cccc(Cl)c1)c1ccncc12` [silmitasertib], for which the “maximum human plasma concentration” value in data set [3] is 3420 nM. In data set [5] (human, in vivo), the “Maximum dose used in humans” value is 1000 mg BID.

Turning to `CN[C@@H]1C[C@H]2O[C@@](C)([C@@H]1OC)n1c3ccccc3c3c4c(c5c6ccccc6n2c5c31)C(=O)NC4` [staurosporine], the “inhibition in secondary screen (CaMKAR in vitro assay)” value against CaMKII [7] is reported as “returned”. The “CaMKAR signal / hit in primary screen” value in [8] is “returned”.

Consider “Constitutively active CaMKIIδC (T287D mutation) (from UniProt Q13557 1-499)”, for which the Maximal amplitude change of CaMKAR signal (R/R0), HEK293T cells, ionomycin in data set [9] stood at 227%.

On to Purified CaMKIIδc, for which, in [10], the “dynamic range of CaMKAR ratio in vitro, plate reader, Ca2+/CaM and ATP” value is “CaMKAR displays a larger dynamic range in vitro (264±2.1%)”; the “spectral changes of purified CaMKAR in vitro” value was “Recombinant CaMKAR is fully functional and exhibits appropriate spectral changes upon incubation with purified CaMKII”.

By IC50 is commonly meant the midpoint of a concentration-inhibition curve.
